Measured values from patent US20070117842A1, “Polymorph of 4-[3-chloro-4-(cyclopropylaminocarbonyl)aminophenoxy]-7-methoxy-6- quinolinecarboxamide and a process for the preparation of the same” (priority 2003, published 2007).
≈ marks a conversion by molar mass, not a printed value. Blank lines part the entries; values can stand above or below the compound they belong to.

Columns and labels:
[1] = Solubility test (pH 3, Britton Robinson buffer); format: physicochemical; details: for solubility (concentration in filtrate): pH 3 Britton Robinson buffer, 25-26° C.; for pH of the filtrate: solubility test
Description: (Solubility Test) The solubilities (pH 3) of the crystals obtained in Examples 1d and 2d were evaluated by the following method. About 3 mg of the crystals obtained in Examples 1d and 2d were weighed and each of them was put in a 10 mL screw-capped transparent test tube. 5 mL of a buffer solution (Britton Robinson buffer, pH 3.091, ionic strength I=0.3) was added to each of the test tubes to prepare the test solutions. The test tubes were wrapped with aluminum foil to shield from light, and shaken by a shaker (MS-1 Iuchi Seieido) in the following conditions. Temperature: 25-26° C. (a temperature in a laboratory) Shaking frequency: 150 times/minute Shaking time: 3 hours and 5 hours Respective sample solutions after shaking were filtered ([…], Sample LCR13-LG, Millipore Co.), and each 1 mL of the initial filtrate was discarded. Each of accurately pipetted 1 mL of the filtrates was put in a 10 mL test tube, to which accurately pipetted 1 mL of a mixed solution of water/acetonitrile (1:1 (v/v)) was added to prepare a solution for the HPLC analysis. The HPLC conditions were as follows. A standard solution for the HPLC analysis were prepared as follows. About 10 mg of the crystals obtained in Example 2d was accurately weighed, to which a mixed solution of water/acetonitrile/ammonium acetate (100:100:0.1, v/v/w) was added to give accurate 100 mL to prepare a stock standard solution. Accurately pipetted 5 mL of the stock control solution was added with a mixed solution of water/acetonitrile/ammonium acetate (100:100:0.1, v/v/w) to give accurate 25 mL to prepare the standard solution for the HPLC analysis. Regarding a blank solution, a mixed solution of water/acetonitrile/ammonium acetate (100:100:0.1, v/v/w) was used. The standard solution and respective filtrates were analyzed by HPLC to measure concentrations (mg/mL) of 4-(3-chloro-4-(cyclopropylaminocarbonyl)aminophenoxy)-7-methoxy-6-quinolinecarboxamide in respective filtrates according to the following equation. Concentration (mg/mL)=(Concentration in the standard solution, mg/mL)×[(Peak area in each filtrate)×2/(Peak area in the standard solution)] As is evident from the results, there was no significant difference in the solubility at pH 3 between the polymorphs (A) and (B).

[2] = Hygroscopicity test by microbalance method; format: physicochemical; details: 25° C.
Description: (Hygroscopicity Test by Microbalance Method)
The higroscopicities of the crystals obtained in Examples 1d and 2d were evaluated by microbalance method. An apparatus and conditions employed were as follows.
Apparatus: Integrated microbalance system MB 300W (VTI Co.)
Relative humidity step: 5 to 95 by 5
Equilibrium Criteria: 0.0050 wt % (5 minutes)
Maximum equilibrium time: 120 minutes
The results of measuring the higroscopicities of the crystals obtained in Examples 1d and 2d by microbalance method are shown in FIGS. 13 and 14, respectively. As is seen from the results shown in these figures, within the range of 5-95% of relative humidity, the polymorph (A) gave a weight change of 1% and the polymorph (B) gave that of 1.5%.

[3] = Solid stability test (1 month storage; appearance, water content, HPLC purity and residual ratio, powder X-ray diffraction); format: physicochemical; details: for impurity / remaining percent: HPLC; for water content: Karl Fischer method
Description: (Solid Stability Test) The solid stabilities of the crystal obtained in Examples 1d and 2d were evaluated. […] The water content measurement and the powder X-ray diffraction measurement were carried out by the same method as described in the hygroscopicity test by the dessiccator method. Further, the purity test and the residual ratio (percent) measurement by HPLC were carried out by the same method as described above, except for the condition that the column temperature was 35° C. In this connection, the residual ratio (percent) (measurement by HPLC) was defined as stated bellow by using the crystal stored under the condition C as the standard and its solution as the standard solution. Remaining percent (%)=[(Peak area of the sample solution)×(Weighed amount of the standard: in terms of a dehydrate (mg))]×100/[(Peak area of the standard solution)×(Weighed amount of the sample: in terms of a dehydrate (mg))] [table]

[4] = Hygroscopicity test by a desiccator method; format: physicochemical; details: for water content: Karl Fischer method
Description: (Hygroscopicity Test by a Desiccator Method) The hygroscopicities of the crystals obtained in Examples 1d and 2d were evaluated by a desiccator method. […] Weighing bottles (in opened caps) were used for containers, and MIR-552 (Sanyo) was used for a storage apparatus. [table] The powder X-ray diffraction analysis was carried out under the following conditions. The water content was measured (by the Karl Fischer method) by using the following apparatus and reagents.

[5] = Crystal transition between polymorphs in heated suspension; format: physicochemical; details: 60° C., 3 hours, listed as polymorph (B)
Description: These suspensions were filtered to collect 4-(3-chloro-4-(cyclopropylaminocarbonyl)aminophenoxy)-7-methoxy-6-quinolinecarboxamide (184 to 266 mg).
These suspensions were filtered to collect 4-(3-chloro-4-(cyclopropylaminocarbonyl)aminophenoxy)-7-methoxy-6-quinolinecarboxamide (141 to 256 mg).

[6] = test system: small cell lung cancer cell line H-526 expressing c-Kit kinase; assay: Effect on cell proliferation stimulated by SCF; format: cell-based; details: Homo sapiens, NCI-H526; H-526 cells, SCF stimulation, 7th day, Cell Counting Kit-8; read-out: IC50 (concentration required for 50% inhibition of the cell proliferation)
Description: After culturing, H-526 cells were washed with PBS three times and were suspended in an RPMI1640 medium containing 0.1% BSA (Sigma Corporation) (hereinafter abbreviated as “BSA-RPMI1640”) at 1.0×10^5 cells/ml. […] After color development, the absorbance of each well was determined using a MTP-32 plate reader (Colona Electric Co., Ltd.) at a measuring wavelength of 450 nm and at a reference wavelength of 660 nm. The absorbance of each well was subtracted by the absorbance of the well without addition of SCF, and then the ratio of the absorbance of the well with addition of the test substance to the ratio of the absorbance of the well without addition of the test substance was determined. This ratio was used to calculate the concentration of the test substance required for 50% inhibition of the cell proliferation (IC50).

[7] = condition C: −20° C., brown screw vial, closed, 1 month
[8] = condition D: 25° C., 1000lx, shading with aluminum foil, quartz tube, closed, 1 month
[9] = condition E: 25° C., 1000lx, quartz tube, closed, 1 month
[10] = condition F: 40° C., 75% RH, brown screw vial, open, 1 month
[11] = condition G: 60° C., brown screw vial, closed, 1 month
[12] = condition A: 25° C., 75% relative humidity, stored 1 week
[13] = condition B: 25° C., 93% relative humidity, stored 1 week
[14] = desiccator method, 25° C., 75% or 93% relative humidity, 1 week

solubility (concentration in filtrate) ([1]; shaking time 3 hours): 0.062 mg/mL (≈ 145 µM)
solubility (concentration in filtrate) ([1]; shaking time 5 hours): 0.054 mg/mL (≈ 127 µM)
pH of the filtrate ([1]; shaking time 3 hours): 3.109
pH of the filtrate ([1]; shaking time 5 hours): 3.106
hygroscopicity ([2]; microbalance method, 5-95% relative humidity): no perceivable hygroscopisity
weight change ([2]; within the range of 5-95% of relative humidity, listed as polymorph (B)): 1.5%
appearance [3, 7]: pale brownish
impurity [3, 7]: 1.55%
remaining percent ([3]; condition C: −20° C., brown screw vial, closed, 1 month, condition C is the standard): (100) %
water content [3, 7]: 0.4 wt %
appearance [3, 8]: pale brownish
impurity [3, 8]: 1.54%
remaining percent ([3]; condition D: 25° C., 1000lx, shading with aluminum foil, quartz tube, closed, 1 month, vs condition C standard): 101.8%
water content [3, 8]: 0.3 wt %
appearance [3, 9]: pale brownish
impurity [3, 9]: 1.55%
remaining percent ([3]; condition E: 25° C., 1000lx, quartz tube, closed, 1 month, vs condition C standard): 100.5%
water content [3, 9]: 0.3 wt %
appearance [3, 10]: pale brownish
impurity [3, 10]: 1.54%
remaining percent ([3]; condition F: 40° C., 75% RH, brown screw vial, open, 1 month, vs condition C standard): 100.4%
water content [3, 10]: 0.4 wt %
appearance [3, 11]: pale brownish
impurity [3, 11]: 1.53%
remaining percent ([3]; condition G: 60° C., brown screw vial, closed, 1 month, vs condition C standard): 101.3%
water content [3, 11]: 0.5 wt %
appearance ([3]; prior to storage): pale brownish
impurity ([3]; prior to storage): 1.53%
water content ([3]; prior to storage): 0.5 wt %
change on storage (solid stability) ([3]; stored for 1 month, any storage conditions): no change was observed
appearance [4, 12]: pale brownish
water content [4, 12]: 0.5 wt %
appearance [4, 13]: pale brownish
water content [4, 13]: 0.5 wt %
crystal transition [4, 14]: no perceivable crystal transition
hygroscopicity [4, 14]: no perceivable hygroscopicitiy
appearance ([4]; prior to storage): pale brownish
water content ([4]; prior to storage): 0.5 wt %
crystal form after suspension ([5]; 300 mg in DMSO (1.7 mL) and 33% (v/v) acetone-water (0.17, 0.34, 0.51 or 0.85 mL)): all of them remained the polymorph (B)
dissolution in DMSO ([5]; 300 mg in DMSO (1.7 mL), without 33% acetone-water): most of the polymorph (B) dissolved
SMILES: COc1cc2nccc(Oc3ccc(NC(=O)NC4CC4)c(Cl)c3)c2cc1C(N)=O [Example 2d, 4-(3-chloro-4-(cyclopropylaminocarbonyl)aminophenoxy)-7-methoxy-6-quinolinecarboxamide]

IC50 [6]: 301 nM
SMILES: CCCNC(=O)Nc1ccc(Oc2ncnc3cc(OC)c(OC)cc23)cc1Cl [KRN633, reference compound]
